Test results published in EP0013144A1, “Substituted diphenylamine derivatives, compositions and herbicidal uses thereof, and processes for their preparation” (ICI AUSTRALIA LIMITED, priority 1978, dated 1980).

Tests used:
Type in all cases: in vivo
[1] = test system: Wheat; assay: Pre-emergence herbicidal activity (Example 31); set-up: key: 0-3 scale: 0 = 0-25% damage, 3 = 75-99% kill, 3+ = 100% kill; conditions: after three weeks
Description: (§1) Concentrated formulations of the compounds of the invention were prepared by: • a) in the case of oils and waxy solids, dissolving the compound in toluene containing 7% v/v "Teric" N13 ("Teric" is a Trade MarK and "Teric" N13, a product of ethoxylation of nonylphenol, is available from ICI Australia Limited) and 3% v/v "Kemmat" SC15B ("Kemmat" is a Trade Mark and "Kemmat" SC15B is a formulation of calcium dodecylbenzene sulfonate); or • b) in the case of crystalline solids, adding 5 parts by weight of the compound and 1 part by weight of . ''Dyapol" PT ("Dyapol" is a Trade Mark and "Dyapol" PT is an anionic suspending agent) to 94 parts by weight of an aqueous solution containing 0.25% v/v of "Teric" N8 (a product of ethoxylation of nonylphenol) and ball-milling the mixture to produce a stable suspension. The emulsifiable concentrates and suspensions were then diluted with water to give an aqueous composition of the required concentration suitable for use in the evaluation of the pre-emergence and post-emergence herbicidal activity of the compounds of the invention.
(§2) The pre-emergent herbicidal activity of the compounds of the invention formulated as described in Example 30 was assessed by the following procedure.
(§3) The seeds of the test species were sown in rows 2 cm deep in soil contained in seed boxes. The monocotyledonous plants and the dicotyledonous plants were sprayed with the required quantity of a composition of the invention. Two duplicate seed Doxes were prepared in the same manner but were not sprayed with a composition of the invention and were used for comparison purposes. All the boxes were placed in a glasshouse, lightly watered with an overhead spray to initiate germination and then sub-irrigated as required for optimum plant growth. After three weeks the boxes were removed from the glasshouse and the effect of the treatment was visually assessed. The results are presented in Table 3 where the damage to plants is rated on a scale of from 0 to 3 where 0 represents from 0 to 25% damage, 3 represents 75 to 99% kill and 3+ represents 100% kill.
(§4) A dash (-) means that no experiment was carried out.

[2] = test system: Ryegrass; assay: Pre-emergence herbicidal activity (Example 31); set-up: key: 0-3 scale: 0 = 0-25% damage, 3 = 75-99% kill, 3+ = 100% kill; conditions: after three weeks
Description: as §1, §2, §3, §4

[3] = test system: Wheat; assay: Post-emergence herbicidal activity (Example 32); set-up: key: 0-3 scale: 0 = 0-25% damage, 3 = 75-99% kill, 3+ = 100% kill; conditions: 3 weeks after spraying
Description: as §1
(§5) The post-emergent herbicidal activity of the compounds of the invention formulated as described in Example 30 was assessed by the following procedure.
(§6) The seeds of the test species were sown in rows 2 cm deep in soil contained in seed boxes. The monocotyledonous plants and the dicotyledonous plants were sown in separate seed boxes in duplicate. The four seed boxes were placed in a glasshouse, lightly watered with an overhead spray to initiate germination and then sub-irrigated as required for optimum plant growth. After the plants had grown to a height of about 10 to 12.5 cm one box of each of the monocotyledonous plants and the dicotyledonous plants was removed from the glasshouse and sprayed with the required quantity of a composition of the invention. After spraying the boxes were returned to the glasshouse for further 3 weeks and the effects of the treatment was visually assessed by comparison with the untreated controls. The results are presented in Table 4 where the damage to plants is rated on a scale of from 0 to 3 where 0 represents 0 to 25% damage, 3 represents 75 to 99% kill and 3+ represents 100% kill. A dash (-) means that no experiment was carried out.

[4] = test system: Mustard; assay: Post-emergence herbicidal activity (Example 32); conditions: 3 weeks after spraying
Description: as §1, §5, §6

[5] = test system: Wild Oats; assay: Post-emergence herbicidal activity (Example 32); conditions: 3 weeks after spraying
Description: as §1, §5, §6

[6] = test system: Ryegrass; assay: Post-emergence herbicidal activity (Example 32); conditions: 3 weeks after spraying
Description: as §1, §5, §6

[7] = test system: Japanese millet; assay: Post-emergence herbicidal activity (Example 32); conditions: 3 weeks after spraying
Description: as §1, §5, §6

[8] = test system: Sunflower; assay: Post-emergence herbicidal activity (Example 32); conditions: 3 weeks after spraying
Description: as §1, §5, §6

[9] = test system: Ipomea; assay: Post-emergence herbicidal activity (Example 32); conditions: 3 weeks after spraying
Description: as §1, §5, §6

[10] = test system: Mustard; assay: Pre-emergence herbicidal activity (Example 31); conditions: after three weeks
Description: as §1, §2, §3, §4

[11] = test system: Japanese millet; assay: Pre-emergence herbicidal activity (Example 31); conditions: after three weeks
Description: as §1, §2, §3, §4

[12] = test system: Sunflower; assay: Pre-emergence herbicidal activity (Example 31); conditions: after three weeks
Description: as §1, §2, §3, §4

[13] = test system: Ipomea; assay: Pre-emergence herbicidal activity (Example 31); conditions: after three weeks
Description: as §1, §2, §3, §4

[14] = test system: Wild Oats; assay: Pre-emergence herbicidal activity (Example 31); conditions: after three weeks
Description: as §1, §2, §3, §4

SMILES | damage to plants, Wh ([1]; 5 kg/ha) | damage to plants, Rg ([2]; 5 kg/ha) | damage to plants, Wh ([3]; 1 kg/ha) | damage to plants, Wh ([3]; 5 kg/ha) | damage to plants, Ms ([4]; 1 kg/ha) | damage to plants, Ms ([4]; 5 kg/ha) | damage to plants, Ot ([5]; 1 kg/ha) | damage to plants, Ot ([5]; 5 kg/ha) | damage to plants, Rg ([6]; 1 kg/ha) | damage to plants, Rg ([6]; 5 kg/ha) | damage to plants, Jm ([7]; 1 kg/ha) | damage to plants, Jm ([7]; 5 kg/ha) | damage to plants, Ms ([10]; 5 kg/ha) | damage to plants, Ot ([14]; 5 kg/ha) | damage to plants, Jm ([11]; 5 kg/ha) | damage to plants, Sf ([12]; 5 kg/ha) | damage to plants, Ip ([13]; 5 kg/ha) | damage to plants, Wh ([1]; 1 kg/ha) | damage to plants, Rg ([2]; 1 kg/ha) | damage to plants, Sf ([8]; 1 kg/ha) | also measured
COC(=O)C(C)Oc1ccc(Nc2ccccc2[N+](=O)[O-])cc1 (stereo not drawn) [Compound 25] | – | – | – | – | – | – | – | – | – | – | – | – | – | – | – | – | – | – | – | – | damage to plants, Wh ([1]; 10 kg/ha): 1; damage to plants, Rg ([2]; 10 kg/ha): 3+ (3+ represents 100% kill); damage to plants, Wh ([3]; 10 kg/ha): 3 (3 represents 75 to 99% kill); damage to plants, Ms ([4]; 10 kg/ha): 0 (0 represents 0 to 25% damage); damage to plants, Ot ([5]; 10 kg/ha): 3 (3 represents 75 to 99% kill); damage to plants, Rg ([6]; 10 kg/ha): 3+ (3+ represents 100% kill); damage to plants, Jm ([7]; 10 kg/ha): 3+ (3+ represents 100% kill); damage to plants, Sf ([8]; 10 kg/ha): 0 (0 represents 0 to 25% damage); damage to plants, Ip ([9]; 10 kg/ha): 0 (0 represents 0 to 25% damage); damage to plants, Ms ([10]; 10 kg/ha): 0 (0 represents from 0 to 25% damage); damage to plants, Jm ([11]; 10 kg/ha): 3 (3 represents 75 to 99% kill); damage to plants, Sf ([12]; 10 kg/ha): 0 (0 represents from 0 to 25% damage); damage to plants, Ip ([13]; 10 kg/ha): 0 (0 represents from 0 to 25% damage)
COC(=O)C(C)Oc1ccc(Nc2ccc(Cl)cc2Cl)cc1 (stereo not drawn) [Compound 22] | 0 (0 represents from 0 to 25% damage) | 2 | 1 | 3 (3 represents 75 to 99% kill) | 1 | 3+ (3+ represents 100% kill) | 2 | 3+ (3+ represents 100% kill) | 3+ (3+ represents 100% kill) | 3+ (3+ represents 100% kill) | 3+ (3+ represents 100% kill) | 3+ (3+ represents 100% kill) | 0 (0 represents from 0 to 25% damage) | 0 (0 represents from 0 to 25% damage) | 2 | 0 (0 represents from 0 to 25% damage) | 0 (0 represents from 0 to 25% damage) | – | – | – | –
CCCCSC(=O)C(C)Oc1ccc(Nc2ccc(C(F)(F)F)cc2[N+](=O)[O-])cc1 (stereo not drawn) [Compound 62] | – | – | 3 (3 represents 75 to 99% kill) | – | 0 (0 represents 0 to 25% damage) | – | 3 (3 represents 75 to 99% kill) | – | 3+ (3+ represents 100% kill) | – | 3+ (3+ represents 100% kill) | – | – | – | – | – | – | 0 (0 represents from 0 to 25% damage) | 2 | 0 (0 represents 0 to 25% damage) | damage to plants, Ip ([9]; 1 kg/ha): 0 (0 represents 0 to 25% damage); damage to plants, Ms ([10]; 1 kg/ha): 0 (0 represents from 0 to 25% damage); damage to plants, Ot ([14]; 1 kg/ha): 1; damage to plants, Jm ([11]; 1 kg/ha): 2; damage to plants, Sf ([12]; 1 kg/ha): 0 (0 represents from 0 to 25% damage); damage to plants, Ip ([13]; 1 kg/ha): 0 (0 represents from 0 to 25% damage)
CC(Oc1ccc(Nc2ccc(Cl)cc2[N+](=O)[O-])cc1)C(=O)OC1CCCCC1 (stereo not drawn) [Compound 79] | 0 (0 represents from 0 to 25% damage) | 3 (3 represents 75 to 99% kill) | 2 | 3 (3 represents 75 to 99% kill) | 0 (0 represents 0 to 25% damage) | 0 (0 represents 0 to 25% damage) | 3 (3 represents 75 to 99% kill) | 3 (3 represents 75 to 99% kill) | 3+ (3+ represents 100% kill) | 3 (3 represents 75 to 99% kill) | 3+ (3+ represents 100% kill) | 3+ (3+ represents 100% kill) | 0 (0 represents from 0 to 25% damage) | – | 3+ (3+ represents 100% kill) | 0 (0 represents from 0 to 25% damage) | 0 (0 represents from 0 to 25% damage) | 0 (0 represents from 0 to 25% damage) | 3 (3 represents 75 to 99% kill) | 0 (0 represents 0 to 25% damage) | damage to plants, Sf ([8]; 5 kg/ha): 0 (0 represents 0 to 25% damage); damage to plants, Ip ([9]; 1 kg/ha): 0 (0 represents 0 to 25% damage); damage to plants, Ip ([9]; 5 kg/ha): 0 (0 represents 0 to 25% damage); damage to plants, Ms ([10]; 1 kg/ha): 0 (0 represents from 0 to 25% damage); damage to plants, Jm ([11]; 1 kg/ha): 3 (3 represents 75 to 99% kill); damage to plants, Sf ([12]; 1 kg/ha): 0 (0 represents from 0 to 25% damage); damage to plants, Ip ([13]; 1 kg/ha): 0 (0 represents from 0 to 25% damage)
COC(=O)C(C)Oc1ccc(N(C)c2ccc(Cl)cc2)cc1 (stereo not drawn) [Compound 13, Methyl 2-[4-(4-chloro-N-methylanilino)phenoxy]-propionate] | 0 (0 represents from 0 to 25% damage) | 1 | 0 (0 represents 0 to 25% damage) | 0 (0 represents 0 to 25% damage) | 0 (0 represents 0 to 25% damage) | 0 (0 represents 0 to 25% damage) | 0 (0 represents 0 to 25% damage) | 0 (0 represents 0 to 25% damage) | 1 | 3 (3 represents 75 to 99% kill) | 3 (3 represents 75 to 99% kill) | 3 (3 represents 75 to 99% kill) | 0 (0 represents from 0 to 25% damage) | 0 (0 represents from 0 to 25% damage) | 0 (0 represents from 0 to 25% damage) | 0 (0 represents from 0 to 25% damage) | 0 (0 represents from 0 to 25% damage) | 0 (0 represents from 0 to 25% damage) | 0 (0 represents from 0 to 25% damage) | 0 (0 represents 0 to 25% damage) | damage to plants, Sf ([8]; 5 kg/ha): 0 (0 represents 0 to 25% damage); damage to plants, Ip ([9]; 1 kg/ha): 0 (0 represents 0 to 25% damage); damage to plants, Ip ([9]; 5 kg/ha): 0 (0 represents 0 to 25% damage); damage to plants, Ms ([10]; 1 kg/ha): 0 (0 represents from 0 to 25% damage); damage to plants, Ot ([14]; 1 kg/ha): 0 (0 represents from 0 to 25% damage); damage to plants, Jm ([11]; 1 kg/ha): 0 (0 represents from 0 to 25% damage); damage to plants, Sf ([12]; 1 kg/ha): 0 (0 represents from 0 to 25% damage); damage to plants, Ip ([13]; 1 kg/ha): 0 (0 represents from 0 to 25% damage)
COC(=O)C(C)Oc1ccc(Nc2ccc(Br)cc2N)cc1 (stereo not drawn) [Compound 32, Methyl 2-[4-(2-amino-4-bromoanilino)phenoxy] propionate] | 1 | 2 | – | – | – | – | – | – | – | – | – | – | 0 (0 represents from 0 to 25% damage) | 0 (0 represents from 0 to 25% damage) | 3 (3 represents 75 to 99% kill) | 0 (0 represents from 0 to 25% damage) | 0 (0 represents from 0 to 25% damage) | – | – | – | –
